Reference: PubChem BioAssay (NCI)
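48-hour exposure; five concentrations; linearly interpolated endpoints. Here, GI50 denotes the concentration required for 50% inhibition of growth. The concentration for full growth arrest is given as TGI.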

Tests used:
Assay in all cases: NCI tumour cell line growth inhibition, 48 h
[1] = test system: SK-MEL-28 melanoma
[2] = test system: UO-31 renal
[3] = test system: UACC-257 melanoma
[4] = test system: SK-OV-3 ovarian
[5] = test system: COLO 205 colon
[6] = test system: NCI/ADR-RES ovarian
[7] = test system: RXF 393 renal
[8] = test system: PC-3 prostate
[9] = test system: DU-145 prostate
[10] = test system: TK-10 renal

SMILES: O=c1oc2ccc(Br)cc2c(=O)n1-c1ccc(I)cc1F
- GI50 [1]: 0.347 µM
- TGI [1]: 1.75 µM
- GI50 [2]: 0.24 µM
- TGI [2]: 1.22 µM
- GI50 [3]: 0.328 µM
- TGI [3]: 1.91 µM
- GI50 [4]: 0.271 µM
- TGI [4]: 2.13 µM
- GI50 [5]: 3.97 µM
- TGI [5]: 15.1 µM
- GI50 [6]: 0.355 µM
- TGI [6]: 2.32 µM
- GI50 [7]: 0.396 µM
- TGI [7]: 1.93 µM
- GI50 [8]: 1.13 µM
- TGI [8]: 5.86 µM
- GI50 [9]: 0.494 µM
- TGI [9]: 26.9 µM
- GI50 [10]: 0.631 µM
- TGI [10]: 7.39 µM

SMILES: CN(Cc1cc(Cl)cc(Cl)c1O)Cc1c(O)ccc2ccccc12
- TGI [1]: 37.3 µM
- TGI [2]: 34.7 µM
- TGI [3]: 34.6 µM
- TGI [4]: 36.8 µM
- TGI [5]: 32 µM
- TGI [6]: 42.5 µM
- TGI [7]: 33.6 µM
- TGI [8]: 30.7 µM
- TGI [9]: 46.2 µM
- TGI [10]: 31.1 µM

SMILES: Cn1c(/C=C/[N+](=O)[O-])cc2ccccc21
- GI50 [1]: 15.7 µM
- TGI [1]: 34.5 µM
- GI50 [2]: 1.47 µM
- TGI [2]: 3.64 µM
- GI50 [3]: 2.11 µM
- TGI [3]: 6.86 µM
- GI50 [4]: 13.2 µM
- TGI [4]: 26.3 µM
- GI50 [5]: 1.88 µM
- TGI [5]: 3.69 µM
- GI50 [6]: 6.45 µM
- TGI [6]: 92.5 µM
- GI50 [7]: 1.66 µM
- TGI [7]: 3.08 µM
- GI50 [8]: 6.75 µM
- TGI [8]: 35.5 µM
- GI50 [9]: 1.65 µM
- TGI [9]: 3.21 µM
- GI50 [10]: 4.04 µM
- TGI [10]: 14.9 µM

SMILES: O=S(=O)(/N=c1/scc(-c2ccccc2)n1-c1ccccc1)c1ccc(N2N=C3c4ccccc4CC3C2c2cccs2)cc1 (centres undefined)
- GI50 [1]: > 100 µM
- TGI [1]: > 100 µM
- GI50 [2]: > 100 µM
- TGI [2]: > 100 µM
- GI50 [3]: > 100 µM
- TGI [3]: > 100 µM
- GI50 [4]: > 100 µM
- TGI [4]: > 100 µM
- GI50 [5]: > 100 µM
- TGI [5]: > 100 µM
- GI50 [6]: > 100 µM
- TGI [6]: > 100 µM
- GI50 [7]: 98.2 µM
- TGI [7]: > 100 µM
- GI50 [8]: 75 µM
- TGI [8]: > 100 µM
- GI50 [9]: > 100 µM
- TGI [9]: > 100 µM
- GI50 [10]: 32.7 µM
- TGI [10]: 75.3 µM

SMILES: CN(C)c1ccc(/C=C/C2=[N+](C)c3ccccc3C2(C)C)cc1
- GI50 [1]: 1.03 µM
- TGI [1]: 18 µM
- GI50 [2]: 2.61 µM
- TGI [2]: 83.3 µM
- GI50 [3]: 0.658 µM
- TGI [3]: 6.17 µM
- GI50 [4]: 0.729 µM
- TGI [4]: 4.19 µM
- GI50 [5]: 0.505 µM
- TGI [5]: 2.07 µM
- GI50 [6]: 13.7 µM
- TGI [6]: > 100 µM
- GI50 [7]: 2.26 µM
- TGI [7]: 16.8 µM
- GI50 [8]: 0.235 µM
- TGI [8]: 13.8 µM
- GI50 [9]: 0.453 µM
- TGI [9]: 23.9 µM
- GI50 [10]: 1.06 µM
- TGI [10]: 32.5 µM

SMILES: Cn1c(NCC(O)CN2CCCC2)cc(=O)n(C)c1=O (centres undefined)
- GI50 [1]: > 100 µM
- TGI [1]: > 100 µM
- GI50 [2]: > 100 µM
- TGI [2]: > 100 µM
- GI50 [3]: > 100 µM
- TGI [3]: > 100 µM
- GI50 [4]: > 100 µM
- TGI [4]: > 100 µM
- GI50 [5]: > 100 µM
- TGI [5]: > 100 µM
- GI50 [6]: > 100 µM
- TGI [6]: > 100 µM
- GI50 [7]: > 100 µM
- TGI [7]: > 100 µM
- GI50 [8]: > 100 µM
- TGI [8]: > 100 µM
- GI50 [9]: > 100 µM
- TGI [9]: > 100 µM
- GI50 [10]: > 100 µM
- TGI [10]: > 100 µM

SMILES: O=C(Nc1ccccc1)c1cc(S(=O)(=O)Nc2nc3ccccc3o2)c(SCc2ccccc2)cc1Cl
- GI50 [1]: 22.7 µM
- TGI [1]: 51.9 µM
- GI50 [2]: 17.8 µM
- TGI [2]: 48.5 µM
- GI50 [3]: 19.6 µM
- TGI [3]: 38.6 µM
- GI50 [4]: 22.3 µM
- TGI [4]: 58.7 µM
- GI50 [5]: 36.7 µM
- TGI [5]: > 100 µM
- GI50 [6]: 26.1 µM
- TGI [6]: 66.3 µM
- GI50 [7]: 19.7 µM
- TGI [7]: 47.7 µM
- GI50 [8]: 21.7 µM
- TGI [8]: 46.7 µM
- GI50 [9]: 16.5 µM
- TGI [9]: 32.4 µM
- GI50 [10]: 13.9 µM
- TGI [10]: 28.2 µM

SMILES: CCCCCCCCCCCCCCCCC(=O)O.CCCCCCCCCCCCCCCCCC(=O)O.CCCCCCCCCCCCCCCCCC(=O)O.CCCCCCCCCCCCCCCCCC(=O)O.CCCCCCCCCCCCCCCCCC(=O)O.CO[CH-]OC12COC1CC(O)C1(C)C(O)C(OC(C)O)C3=C(C)C(OC(=O)C(O)C([NH-])c4ccccc4)CC(O)(C(OC(=O)c4ccccc4)C21)C3(C)C.[Cu+].[Zn].[Zn].[Zn].[Zn].[Zn] (centres undefined)
- GI50 [1]: 4.68 µM
- TGI [1]: 23.7 µM
- GI50 [2]: 0.487 µM
- TGI [2]: > 14.5 µM
- GI50 [3]: 3.91 µM
- TGI [3]: > 25 µM
- GI50 [4]: 0.0203 µM
- TGI [4]: 5.3 µM
- GI50 [5]: 0.00844 µM
- TGI [5]: > 25 µM
- GI50 [6]: 2.31 µM
- TGI [6]: 24.6 µM
- TGI [7]: 0.21 µM
- GI50 [8]: 0.00998 µM
- TGI [8]: 5.63 µM
- GI50 [9]: 0.00871 µM
- TGI [9]: 1.63 µM
- GI50 [10]: 0.258 µM
- TGI [10]: > 25 µM

SMILES: CC(=O)N1N=C2/C(=C/c3ccc(Cl)cc3)CC(C)CC2C1c1ccc(Cl)cc1 (centres undefined)
- GI50 [1]: 23.7 µM
- TGI [1]: 53.8 µM
- GI50 [2]: 15.1 µM
- TGI [2]: 30.5 µM
- GI50 [3]: 19.9 µM
- TGI [3]: 56.1 µM
- GI50 [4]: 20.4 µM
- TGI [4]: 59.6 µM
- GI50 [5]: 11.8 µM
- TGI [5]: 24.5 µM
- GI50 [6]: 21.7 µM
- TGI [6]: > 100 µM
- GI50 [7]: 15.3 µM
- TGI [7]: 33.9 µM
- GI50 [8]: 12.8 µM
- TGI [8]: > 100 µM
- GI50 [9]: 30.5 µM
- TGI [9]: > 100 µM
- GI50 [10]: 37.2 µM
- TGI [10]: > 100 µM

SMILES: CCCCCCCCn1ccc2cc(NC(=O)Cn3cc(CN4CCCCC4)nn3)ccc21
- GI50 [1]: 1.75 µM
- TGI [1]: 3.29 µM
- GI50 [2]: 1.34 µM
- TGI [2]: 2.62 µM
- GI50 [3]: 2.01 µM
- TGI [3]: 4.45 µM
- GI50 [4]: 1.89 µM
- TGI [4]: 3.97 µM
- GI50 [5]: 1.84 µM
- TGI [5]: 3.68 µM
- GI50 [6]: 2.92 µM
- TGI [6]: 10.2 µM
- GI50 [7]: 1.46 µM
- TGI [7]: 3.06 µM
- GI50 [8]: 1.43 µM
- TGI [8]: 3.05 µM
- GI50 [9]: 4.1 µM
- TGI [9]: 14.4 µM
- GI50 [10]: 2.44 µM
- TGI [10]: 6.63 µM

SMILES: CN1C/C=C/CCOc2cccc(c2)-c2ccnc(n2)Nc2cccc(c2)C1
- GI50 [1]: 0.0349 µM
- TGI [1]: 0.188 µM
- GI50 [2]: 0.0251 µM
- TGI [2]: 0.0849 µM
- GI50 [3]: 0.0505 µM
- TGI [3]: 0.225 µM
- GI50 [4]: 0.174 µM
- TGI [4]: 3.82 µM
- GI50 [5]: 0.0204 µM
- TGI [5]: 0.0442 µM
- GI50 [6]: 0.0561 µM
- TGI [6]: 0.963 µM
- GI50 [7]: 0.0207 µM
- TGI [7]: 0.0447 µM
- GI50 [8]: 0.0519 µM
- TGI [8]: 1.39 µM
- GI50 [9]: 0.0402 µM
- TGI [9]: 1.4 µM
- GI50 [10]: 0.048 µM
- TGI [10]: 0.506 µM

SMILES: c1ccc2cc(C[n+]3ccn(CCCCCCCCCCn4cc[n+](Cc5ccc6ccccc6c5)c4)c3)ccc2c1
- GI50 [1]: 1.3 µM
- TGI [1]: 5.66 µM
- GI50 [2]: 6.14 µM
- TGI [2]: > 100 µM
- GI50 [3]: 1.37 µM
- TGI [3]: 5.58 µM
- GI50 [4]: 1.36 µM
- TGI [4]: 6.39 µM
- GI50 [5]: 0.411 µM
- TGI [5]: 1.68 µM
- GI50 [6]: 29.4 µM
- TGI [6]: > 100 µM
- GI50 [7]: 0.822 µM
- TGI [7]: 3.72 µM
- GI50 [8]: 1.19 µM
- TGI [8]: 7.3 µM
- GI50 [9]: 1.06 µM
- TGI [9]: 14.1 µM
- GI50 [10]: 3.28 µM
- TGI [10]: 16.9 µM
